Values quoted from earlier work in patent US20050032891A1, “Method for treating alcoholic hepatitis” (University of Pittsburgh-of the Commonwealth System of …, priority 2003, published 2005).

System: rats subjected to hemorrhagic shock and resuscitation
Conditions: treatment with EP

In the case of `CCOC(=O)C(C)=O` [EP, ethyl pyruvate], the hepatic lipid peroxidation is given as “decreases hepatic lipid peroxidation”.
